34 compounds from patent US10172863B2, “Purine derivatives useful as HSP90 inhibitors” (Sloan-Kettering Institute for Cancer Research, priority 2009, dated 2019) can be followed below.

The EC50 is the concentration that produces a half-maximal response.

This assay deals with SKBr3 cell Hsp90. Description: EC50 for Hsp90 binding in SKBr3 cell lysate. To be noted: read-out: EC50, binding to SKBr3 cell Hsp90.
For `CC(C)NCCCn1c(Sc2cc3c(cc2-c2ccccc2)OCO3)nc2c(N)ncnc21` [Compound 4A-1, 9-(3-(isopropylamino)propyl)-8-(6-phenylbenzo[d][1,3]dioxol-5-ylthio)-9H-purin-6-amine], the EC50 turned out to be 645 nM.
In the case of `CC(C)NCCCn1c(Sc2cc3c(cc2-c2ccc(C(C)(C)C)cc2)OCO3)nc2c(N)ncnc21` [Compound 4A-2, 8-(6-(4-tert-butylphenyl)benzo[d][1,3]dioxol-5-ylthio)-9-(3-(isopropylamino)propyl)-9H-purin-6-amine] it was 6240 nM.
In the case of `CC(C)NCCCn1c(Sc2cc3c(cc2-c2cc(C(F)(F)F)cc(C(F)(F)F)c2)OCO3)nc2c(N)ncnc21` [Compound 4A-3, 8-(6-(3,5-bis(trifluoromethyl)phenyl)benzo[d][1,3]dioxol-5-ylthio)-9-(3-(isopropylamino)propyl)-9H-purin-6-amine] it was greater than 100000 nM; in that of `NCCCCCCNCCCn1c(Sc2cc3c(cc2-c2cc(C(F)(F)F)cc(C(F)(F)F)c2)OCO3)nc2c(N)ncnc21` [Compound 4A-4, N1-(3-(6-amino-8-(6-(3,5-bis(trifluoromethyl)phenyl)benzo[d][1,3]dioxol-5-ylthio)-9H-purin-9-yl)propyl)hexane-1,6-diamine], 15000 nM; in that of `CC(C)NCCCn1c(Sc2cc3c(cc2-c2ccc(N(C)C)cc2)OCO3)nc2c(N)ncnc21` [Compound 4A-5, 8-(6-(4-(dimethylamino)phenyl)benzo[d][1,3]dioxol-5-ylthio)-9-(3-(isopropylamino)propyl)-9H-purin-6-amine], 2520 nM.
To `COc1ccc(-c2cc3c(cc2Sc2nc4c(N)ncnc4n2CCCNC(C)C)OCO3)cc1` [Compound 4A-6, 9-(3-(isopropylamino)propyl)-8-(6-(4-methoxyphenyl)benzo[d][1,3]dioxol-5-ylthio)-9H-purin-6-amine] belongs 1030 nM; to `CC(C)NCCCn1c(Sc2cc3c(cc2-c2ccc(Br)cc2)OCO3)nc2c(N)ncnc21` [Compound 4A-7, 8-(6-(4-bromophenyl)benzo[d][1,3]dioxol-5-ylthio)-9-(3-(isopropylamino)propyl)-9H-purin-6-amine], 1380 nM.
In the case of `CC(C)NCCCn1c(Sc2cc3c(cc2-c2ccc(C=O)cc2)OCO3)nc2c(N)ncnc21` [Compound 4A-8, 4-(6-(6-amino-9-(3-(isopropylamino)propyl)-9H-purin-8-ylthio)benzo[d][1,3]dioxol-5-yl)benzaldehyde], the EC50 was greater than 3000 nM.
To `CC(C)NCCCn1c(Sc2cc3c(cc2-c2ccco2)OCO3)nc2c(N)ncnc21` [Compound 4C-1, 8-(6-(furan-2-yl)benzo[d][1,3]dioxol-5-ylthio)-9-(3-(isopropylamino)propyl)-9H-purin-6-amine] belongs 22 nM; to `CC(C)NCCCn1c(Sc2cc3c(cc2-c2ccoc2)OCO3)nc2c(N)ncnc21` [Compound 4C-2, 8-(6-(furan-3-yl)benzo[d][1,3]dioxol-5-ylthio)-9-(3-(isopropylamino)propyl)-9H-purin-6-amine], 86 nM; to `CC(C)(C)CNCCn1c(Sc2cc3c(cc2-c2ccco2)OCO3)nc2c(N)ncnc21` [Compound 4C-5, 8-(6-(furan-2-yl)benzo[d][1,3]dioxol-5-ylthio)-9-(2-(neopentylamino)ethyl)-9H-purin-6-amine], 6.5 nM.
To `CC(C)NCCCn1c(Sc2cc3c(cc2-c2ccc(C=O)o2)OCO3)nc2c(N)ncnc21` [Compound 4C-6, 5-(6-(6-amino-9-(3-(isopropylamino)propyl)-9H-purin-8-ylthio)benzo[d][1,3]dioxol-5-yl)furan-2-carbaldehyde] belongs 141 nM; to `Cc1ccc(-c2cc3c(cc2Sc2nc4c(N)ncnc4n2CCCNC(C)C)OCO3)o1` [Compound 4C-8, 9-(3-(isopropylamino)propyl)-8-(6-(5-methylfuran-2-yl)benzo[d][1,3]dioxol-5-ylthio)-9H-purin-6-amine], 37 nM.
With `CC(C)NCCCn1c(Sc2cc3c(cc2-c2cnoc2)OCO3)nc2c(N)ncnc21` [Compound 4C-10, 9-(3-(isopropylamino)propyl)-8-(6-(isoxazol-4-yl)benzo[d][1,3]dioxol-5-ylthio)-9H-purin-6-amine], the EC50 was greater than 300 nM.
In the case of `CC(C)(C)CNCCn1c(Sc2cc3c(cc2-c2ccoc2)OCO3)nc2c(N)ncnc21` [Compound 4C-14, 8-(6-(furan-3-yl)benzo[d][1,3]dioxol-5-ylthio)-9-(2-(neopentylamino)ethyl)-9H-purin-6-amine] it was 10.1 nM; in that of `Cc1ccc(-c2cc3c(cc2Sc2nc4c(N)ncnc4n2CCNCC(C)(C)C)OCO3)o1` [Compound 4C-16, 8-(6-(5-methylfuran-2-yl)benzo[d][1,3]dioxol-5-ylthio)-9-(2-(neopentylamino)ethyl)-9H-purin-6-amine], 10.2 nM; in that of `CC(C)NCCCn1c(Sc2cc3c(cc2-c2ncco2)OCO3)nc2c(N)ncnc21` [Compound 4C-38, 9-(3-(isopropylamino)propyl)-8-(6-(oxazol-2-yl)benzo[d][1,3]dioxol-5-ylthio)-9H-purin-6-amine], 7.9 nM.
In the case of `CC(C)NCCCn1c(Sc2cc3c(cc2C2CC=CO2)OCO3)nc2c(N)ncnc21` (stereo not shown) [Compound 4C-40, 8-(6-(2,3-dihydrofuran-2-yl)benzo[d][1,3]dioxol-5-ylthio)-9-(3-(isopropylamino)propyl)-9H-purin-6-amine] it was 509 nM; in that of `CC(C)NCCCn1c(Sc2cc3c(cc2C2C=COC2)OCO3)nc2c(N)ncnc21` (stereo not shown) [Compound 4C-41, 8-(6-(2,3-dihydrofuran-3-yl)benzo[d][1,3]dioxol-5-ylthio)-9-(3-(isopropylamino)propyl)-9H-purin-6-amine], 2080 nM; in that of `CC(C)NCCCn1c(Sc2cc3c(cc2-c2cccs2)OCO3)nc2c(N)ncnc21` [Compound 4D-1, 9-(3-(isopropylamino)propyl)-8-(6-(thiophen-2-yl)benzo[d][1,3]dioxol-5-ylthio)-9H-purin-6-amine], 80 nM.
On to `CC(C)(C)CNCCn1c(Sc2cc3c(cc2-c2cccs2)OCO3)nc2c(N)ncnc21` [Compound 4D-3, 9-(2-(neopentylamino)ethyl)-8-(6-(thiophen-2-yl)benzo[d][1,3]dioxol-5-ylthio)-9H-purin-6-amine], for which the EC50 worked out at 18.5 nM.
For `CC(C)NCCCn1c(Sc2cc3c(cc2-c2nccs2)OCO3)nc2c(N)ncnc21` [Compound 4D-16, 9-(3-(isopropylamino)propyl)-8-(6-(thiazol-2-yl)benzo[d][1,3]dioxol-5-ylthio)-9H-purin-6-amine], the EC50 was determined as 47 nM.
To `CC(C)NCCCn1c(Sc2cc3c(cc2CC#N)OCO3)nc2c(N)ncnc21` [Compound 4E-3, 2-(6-((6-amino-9-(3-(isopropylamino)propyl)-9H-purin-8-yl)thio)benzo[d][1,3]dioxol-5-yl)acetonitrile] belongs 1130 nM; to `CC(C)NCCCn1c(Sc2cc3c(cc2-c2ccncc2)OCO3)nc2c(N)ncnc21` [Compound 4F-1, 9-(3-(isopropylamino)propyl)-8-(6-(pyridin-4-yl)benzo[d][1,3]dioxol-5-ylthio)-9H-purin-6-amine], 9620 nM; to `CC(C)NCCCn1c(Sc2cc3c(cc2-c2cn[nH]c2)OCO3)nc2c(N)ncnc21` [Compound 4G-1, 8-(6-(1H-pyrazol-4-yl)benzo[d][1,3]dioxol-5-ylthio)-9-(3-(isopropylamino)propyl)-9H-purin-6-amine], 1020 nM.
In the case of `CC(C)NCCCn1c(Sc2cc3c(cc2-c2ccnn2C)OCO3)nc2c(N)ncnc21` [Compound 4G-4, 9-(3-(isopropylamino)propyl)-8-(6-(1-methyl-1H-pyrazol-5-yl)benzo[d][1,3]dioxol-5-ylthio)-9H-purin-6-amine] it was greater than 300 nM; in that of `CC(C)NCCCn1c(Sc2cc3c(cc2-c2cc[nH]n2)OCO3)nc2c(N)ncnc21` [Compound 4G-6, 8-(6-(1H-pyrazol-3-yl)benzo[d][1,3]dioxol-5-ylthio)-9-(3-(isopropylamino)propyl)-9H-purin-6-amine], 5.5 nM; in that of `CC(C)(C)CNCCn1c(Sc2cc3c(cc2-c2cc[nH]n2)OCO3)nc2c(N)ncnc21` [Compound 4G-9, 8-(6-(1H-pyrazol-3-yl)benzo[d][1,3]dioxol-5-ylthio)-9-(2-(neopentylamino)ethyl)-9H-purin-6-amine], 5.5 nM.
Turning to `CC(C)NCCCn1c(Sc2cc3c(cc2-c2ccc[nH]2)OCO3)nc2c(N)ncnc21` [Compound 4H-1, 8-(6-(1H-pyrrol-2-yl)benzo[d][1,3]dioxol-5-ylthio)-9-(3-(isopropylamino)propyl)-9H-purin-6-amine], the EC50 came to 740 nM.
Turning to `CC(C)NCCCn1c(Sc2cc3c(cc2-c2cc[nH]c2)OCO3)nc2c(N)ncnc21` [Compound 4H-3, 8-(6-(1H-pyrrol-3-yl)benzo[d][1,3]dioxol-5-ylthio)-9-(3-(isopropylamino)propyl)-9H-purin-6-amine], the EC50 came out at 161 nM.
As to `CC(C)(C)CNCCn1c(Sc2cc3c(cc2-c2cc[nH]c2)OCO3)nc2c(N)ncnc21` [Compound 4H-4, 8-(6-(1H-pyrrol-3-yl)benzo[d][1,3]dioxol-5-ylthio)-9-(2-(neopentylamino)ethyl)-9H-purin-6-amine], the EC50 came to 24.6 nM.
As to `CC(C)NCCCn1c(Sc2cc3c(cc2C2C=CCN2)OCO3)nc2c(N)ncnc21` (stereo not shown) [Compound 4H-7, 8-(6-(2,5-dihydro-1H-pyrrol-2-yl)benzo[d][1,3]dioxol-5-ylthio)-9-(3-(isopropylamino)propyl)-9H-purin-6-amine], the concentration for a half-maximal effect (EC50) came out at 26700 nM.
In the case of `CC(C)NCCCn1c(Sc2cc3c(cc2C2C=CCC2)OCO3)nc2c(N)ncnc21` (stereo not shown) [Compound 4I-12, 8-(6-(cyclopent-2-enyl)benzo[d][1,3]dioxol-5-ylthio)-9-(3-(isopropylamino)propyl)-9H-purin-6-amine] it was 394 nM; in that of `CC(C)NCCCn1c(Sc2cc3c(cc2I)OCCO3)nc2c(N)ncnc21` [Compound 5A-1, 8-(7-Iodo-2,3-dihydrobenzo[b][1,4]dioxin-6-ylthio)-9-(3-(isopropylamino)propyl)-9H-purin-6-amine], 34.5 nM.
